{"source": "PubChem BioAssay AID1963422", "about": "(Molecular Pharmacology Branch, DTP, NCI, 2024);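 note: compound exposure lasted 7 days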;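 for viability, T/C: 100% = DMSO vehicle control wells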", "tested_on": "463943-066-T-J2-PDC complex spheroid growth", "test": "Anticancer human tumor 463943-066-T-J2-PDC patient-derived colon adenocarcinoma cell line growth inhibition [Asc]", "details": "for IC50: curve of first compound; for viability, T/C: stronger effect = lower value", "description": "Multicellular complex tumor spheroid response to apoptosis pathway targeting inhibitors Alrizomadlin, Pelcitoclax, and Dasminapant in combination with a variety of drugs and investigational agents in selected tumor cell lines\nThe MDM2 inhibitor alrizomadlin, the Bcl-2/Bcl-xL inhibitor pelcitoclax, and the IAPs inhibitor dasminapant were evaluated both individually and in combination with standard of care and investigational anticancer small molecules within a complex spheroid model of solid tumors. . Complex spheroids include a stromal component modeled by human endothelial cells (HUVEC) and fibroblasts modeled by human mesenchymal stem cells (MSCs). The concentration ranges selected for each drug and investigational agent were based upon clinically achievable concentrations if the clinical Cmax of the agent was known.\nCompounds. The drugs and investigational agents: alrizomadlin (APG-115; NSC831270), pelcitoclax (APG-1252; NSC835773), dasminapant (APG-1387;NSC834197), TAK-243 (NSC785004), copanlisib (NSC809693), olaparib (NSC753686), talazoparib (NSC767125), cobimetinib (NSC 768068), eltanexor (KPT-8602, NSC 794443), abemaciclib (NSC 768073), sotorasib (NSC818433), adagrasib (NSC 831453), MRTX-1133 (NSC 836407), Iadademestat (ORY1001, NSC 806812), and RMC-4630 (NSC839698), were obtained from the NCI Developmental Therapeutics Program Chemical Repository. The FDA-approved anticancer drug set is available from the Developmental Therapeutics Program at https://dtp.cancer.gov/organization/dscb/obtaining/available plates.htm. […] The stock solutions were prepared in dimethyl sulfoxide (DMSO, Sigma-Aldrich, St. Louis, MO, cat. D2650) at 800-fold the tested concentration and stored at -70 degrees C prior to their use. All drugs and investigational agents were tested over a range starting from a high concentration at or near the clinical Cmax and decreasing in half-log increments. If the clinical Cmax for an agent had not been determined, the highest concentration tested was 10 microM.\nThe patient-derived cancer (PDC) cell lines include five colon adenocarcinomas: 186277-243-T-J2-PDC, 616215-338-R-J1-PDC, 439559-082-T-J2-PDC, 463943-066-T-J2-PDC, and 519858-162-T-J1-PDC; three pancreatic carcinomas: 323965-272-R-J2-PDC, 521955-158-R6-J3-PDC, and 521955-158-R2-J5-PDC; two uterine sarcomas: 327498-152-R-J2-PDC and 993429-296-R-J1-PDC; two rhabdomyosarcomas: 755483-174-R-J1-PDC and 772245-204-R-J1-PDC; two soft tissue sarcomas: 126254-015-R-J1-PDC and 494315-158-R-J1-PDC; two malignant fibrous histiocytomas: 317291-083-R-J1-PDC and 596521-263-R-J1-PDC; two breast carcinomas: 171881-019-R-J1-PDC and 885512-296-R-J2-PDC; and one ovarian carcinoma: 6556581-035-R-J-PDC were obtained from the NCI PDMR, (https://pdmr.cancer.gov). The established cell lines HSSY-2 synovial sarcoma (RRID:CVCL 8719), SYO-1 synovial sarcoma (RRID:CVCL_7146), MPNST malignant peripheral neural sheath tumor were obtained from the Sloan Kettering Institute. The following established cell lines were purchased from the American Type Culture Collection (ATCC, Manassas, VA), Sor the received from the NCI repository:, PANC-1 pancreatic carcinoma (CRL-1469, RRID:CVCL_0480), OVCAR-5 ovarian carcinoma (RRID:CVCL_1628), OVCAR-8 ovarian carcinoma (RRID:CVCL_1629), , MCF-7 breast carcinoma (CRL-12584, RRID:CVCL_0031), MDA-MB-231 breast carcinoma (CRL-12532, RRID:CVCL_0062), NCI-H1876 small cell lung carcinoma (CRL-5902, RRID:CVCL_1503), NCI-H510A small cell lung carcinoma (HTB-184, RRID:CVCL_1565), NCI-H1417 (CRL-5869, RRID:CVCL_1469), and NCI-H196 small cell lung carcinoma (CRL-5823, RRID:CVCL_1509). Dr. Peter Houghton (Greehey Children's Cancer Research Institute, University of Texas Health Science Center, San Antonio, TX) provided Rh-18 rhabdomyosarcoma (RRID:CVCL_1659). Pooled donor human umbilical vein endothelial cells (HUVEC, Lonza, cat. CC-2519) and human mesenchymal stem cells (hMSC, Lonza, cat. PT-2501) were purchased from Lonza (Walkersville, MD).\nCell Culture. […]"}
{"smiles": "Cn1ncnc1[C@H]1c2n[nH]c(=O)c3cc(F)cc(c23)N[C@@H]1c1ccc(F)cc1", "note": "+ Cc1c(S(C)(=O)=O)c(-c2cc(F)cc(N3CCN(c4ccc(NS(=O)(=O)c5ccc(NC(CCN6CCC(C(=O)OCCCP(=O)(O)O)CC6)CSc6ccccc6)c(S(=O)(=O)C(F)(F)F)c5)cc4)CC3)c2)c(-c2ccc(Cl)cc2)n1C(C)C", "values": [{"measurement": "IC50", "setting": "second compound 0.0316 µM", "result": "> 100", "unit": "nM"}, {"measurement": "IC50", "setting": "second compound 0.1 µM", "result": "> 100", "unit": "nM"}, {"measurement": "IC50", "setting": "second compound 0.316 µM", "result": "> 100", "unit": "nM"}, {"measurement": "IC50", "setting": "second compound 1 µM", "result": "> 100", "unit": "nM"}, {"measurement": "IC50", "setting": "second compound 3.16 µM", "result": "> 100", "unit": "nM"}, {"measurement": "IC50", "setting": "second compound 10 µM", "result": "< 0.316", "unit": "nM"}, {"measurement": "viability, T/C", "setting": "second compound 0.0316 µM, first compound 0.000316 µM", "result": 100, "unit": "%"}, {"measurement": "viability, T/C", "setting": "second compound 0.0316 µM, first compound 0.001 µM", "result": 91.8, "unit": "%"}, {"measurement": "viability, T/C", "setting": "second compound 0.0316 µM, first compound 0.00316 µM", "result": 93.6, "unit": "%"}, {"measurement": "viability, T/C", "setting": "second compound 0.0316 µM, first compound 0.01 µM", "result": 102, "unit": "%"}, {"measurement": "viability, T/C", "setting": "second compound 0.0316 µM, first compound 0.0316 µM", "result": 92.2, "unit": "%"}, {"measurement": "viability, T/C", "setting": "second compound 0.0316 µM, first compound 0.1 µM", "result": 83, "unit": "%"}, {"measurement": "viability, T/C", "setting": "second compound 0.1 µM, first compound 0.000316 µM", "result": 93, "unit": "%"}, {"measurement": "viability, T/C", "setting": "second compound 0.1 µM, first compound 0.001 µM", "result": 94, "unit": "%"}, {"measurement": "viability, T/C", "setting": "second compound 0.1 µM, first compound 0.00316 µM", "result": 87.2, "unit": "%"}, {"measurement": "viability, T/C", "setting": "second compound 0.1 µM, first compound 0.01 µM", "result": 91.6, "unit": "%"}, {"measurement": "viability, T/C", "setting": "second compound 0.1 µM, first compound 0.0316 µM", "result": 92.3, "unit": "%"}, {"measurement": "viability, T/C", "setting": "second compound 0.1 µM, first compound 0.1 µM", "result": 80.1, "unit": "%"}, {"measurement": "viability, T/C", "setting": "second compound 0.316 µM, first compound 0.000316 µM", "result": 91.1, "unit": "%"}, {"measurement": "viability, T/C", "setting": "second compound 0.316 µM, first compound 0.001 µM", "result": 82, "unit": "%"}, {"measurement": "viability, T/C", "setting": "second compound 0.316 µM, first compound 0.00316 µM", "result": 84.5, "unit": "%"}, {"measurement": "viability, T/C", "setting": "second compound 0.316 µM, first compound 0.01 µM", "result": 80.2, "unit": "%"}, {"measurement": "viability, T/C", "setting": "second compound 0.316 µM, first compound 0.0316 µM", "result": 86.7, "unit": "%"}, {"measurement": "viability, T/C", "setting": "second compound 0.316 µM, first compound 0.1 µM", "result": 83.1, "unit": "%"}, {"measurement": "viability, T/C", "setting": "second compound 1 µM, first compound 0.000316 µM", "result": 84.9, "unit": "%"}, {"measurement": "viability, T/C", "setting": "second compound 1 µM, first compound 0.001 µM", "result": 74.4, "unit": "%"}, {"measurement": "viability, T/C", "setting": "second compound 1 µM, first compound 0.00316 µM", "result": 76.6, "unit": "%"}, {"measurement": "viability, T/C", "setting": "second compound 1 µM, first compound 0.01 µM", "result": 79.8, "unit": "%"}, {"measurement": "viability, T/C", "setting": "second compound 1 µM, first compound 0.0316 µM", "result": 85.2, "unit": "%"}, {"measurement": "viability, T/C", "setting": "second compound 1 µM, first compound 0.1 µM", "result": 71.2, "unit": "%"}, {"measurement": "viability, T/C", "setting": "second compound 3.16 µM, first compound 0.000316 µM", "result": 61.7, "unit": "%"}, {"measurement": "viability, T/C", "setting": "second compound 3.16 µM, first compound 0.001 µM", "result": 58.1, "unit": "%"}, {"measurement": "viability, T/C", "setting": "second compound 3.16 µM, first compound 0.00316 µM", "result": 61, "unit": "%"}, {"measurement": "viability, T/C", "setting": "second compound 3.16 µM, first compound 0.01 µM", "result": 61, "unit": "%"}, {"measurement": "viability, T/C", "setting": "second compound 3.16 µM, first compound 0.0316 µM", "result": 68.3, "unit": "%"}, {"measurement": "viability, T/C", "setting": "second compound 3.16 µM, first compound 0.1 µM", "result": 60.8, "unit": "%"}, {"measurement": "viability, T/C", "setting": "second compound 10 µM, first compound 0.000316 µM", "result": 44.8, "unit": "%"}, {"measurement": "viability, T/C", "setting": "second compound 10 µM, first compound 0.001 µM", "result": 50.5, "unit": "%"}, {"measurement": "viability, T/C", "setting": "second compound 10 µM, first compound 0.00316 µM", "result": 47.6, "unit": "%"}, {"measurement": "viability, T/C", "setting": "second compound 10 µM, first compound 0.01 µM", "result": 46.8, "unit": "%"}, {"measurement": "viability, T/C", "setting": "second compound 10 µM, first compound 0.0316 µM", "result": 56.2, "unit": "%"}, {"measurement": "viability, T/C", "setting": "second compound 10 µM, first compound 0.1 µM", "result": 45.6, "unit": "%"}]}
